Results: publication PMC10714399, “Open Source Antibiotics: Simple Diarylimidazoles Are Potent against Methicillin-Resistant Staphylococcus aureus” (ACS Infectious Diseases, 2023)
≈ marks a conversion by molar mass, not a printed value. Like-named read-outs stand apart in the source and are kept apart here.

Key:
[1] = tested on: S. aureus ATCC 25923 (methicillin-susceptible); assay: In vitro antibacterial activity, MIC (UCL), MSSA; type: cell-based, Staphylococcus aureus; details: for MIC: Staphylococcus aureus
Protocol: (§1) Staphylococcus aureus NCTC 13373 (mecA-positive; methicillin-resistant, NCTC 13373) was supplied by the National Collection of Type Cultures (NCTC), Public Health England, United Kingdom. Other organisms, S. aureus ATCC 25923 (methicillin-susceptible) and Enterococcus faecalis ATCC 51299 (vanA-positive; vancomycin-resistant), were obtained from the American Type Culture Collection (ATCC) via LGC Standards, UK. A suspension of each organism was prepared from an overnight plate culture (tryptone soya agar) in phosphate-buffered saline (PBS) and adjusted to an absorbance reading at 600 nm of 0.1, which is approximately equivalent to 1 × 10^8 colony-forming units (CFU) per mL. The cultures were further diluted 1:100 in isosensitest broth (Oxoid, United Kingdom) before 100 μL was used to inoculate each well of a 96-well plate that contained diluted samples of the OSA series. Compounds were evaluated over a 2-fold dilution range from 32 to 0.03 μg/mL. Stocks of the samples were prepared in 100% DMSO at […] before being diluted in isosenstitest broth. The highest concentration of DMSO present was 2%, which has been previously shown not to inhibit the growth of the microorganisms (data not shown). […] Vancomycin was used as a quality control compound.

[2] = tested on: Staphylococcus aureus NCTC 13373 (mecA-positive; methicillin-resistant); assay: In vitro antibacterial activity, MIC (UCL School of Pharmacy assay), MRSA; type: cell-based; details: for MIC: Staphylococcus aureus
Protocol: as §1

[3] = UCL assay, read-out: MSSA MIC (ug/mL) (UCL)
[4] = UCL assay, read-out: MRSA MIC (ug/mL) (UCL)

Compound `[2H]C([2H])([2H])N(c1ccc(F)cc1)c1c(-c2ccccn2)nc2ccccn12` [compound 1002] has an MIC ([1]; read-out: MSSA MIC) of 16 µg/mL (≈ 49.8 µM) and an MIC ([2]; read-out: MRSA MIC) of 16 µg/mL (≈ 49.8 µM).
For `Cc1nc2cc(-c3c(-c4ccccn4)nc4n3CCC4)ccc2s1` [compound 836], the “activity against MRSA, in words” value [2] was “ineffective” and the MIC ([2]; read-out: MRSA MIC) was 32 µg/mL (≈ 96.3 µM).
`N#Cc1ccc(-c2c(-c3ccccn3)nc3cnccn23)cc1` [OSA_001106] was tested, and the MIC [1, 3] was over 32 µg/mL and the MIC [2, 4] was over 32 µg/mL.
With `c1ccc(-c2nc3n(c2-c2ccc4cccnc4c2)CCC3)nc1` [OSA_000833] the MIC ([2]; UCL, read-out: MRSA MIC (UCL)) was over 32 µg/mL.
Compound `Cc1ccc(C(=O)Nc2c(-c3ccccn3)nc3ccccn23)cc1` [OSA_001017] has an MIC ([1]; read-out: MSSA MIC (UCL)) of over 32 µg/mL and an MIC ([2]; UCL, read-out: MRSA MIC (UCL)) of over 32 µg/mL.
For `c1ccc(-c2nc3n(c2-c2ccc4ccsc4c2)CCC3)nc1` [compound 830], the MIC ([2]; read-out: MRSA MIC) was 4 µg/mL (≈ 12.6 µM).
Compound `N#Cc1ccc(-c2c(-c3ncccn3)nc3ccccn23)cc1` [OSA_001107] has an MIC [1, 3] of over 32 µg/mL and an MIC [2, 4] of over 32 µg/mL.
`c1ccc(-c2nc3n(c2-c2ccc4sc5ccccc5c4c2)CCC3)nc1` [compound 831] gave an MIC ([2]; read-out: MRSA MIC) of 8 µg/mL (≈ 21.8 µM).
For `COc1ccnc(-c2nc3ccccn3c2N(C)c2ccc(F)cc2)c1` [compound 1007], the “MSSA MIC” value [1] was 8 µg/mL and the “MRSA MIC” value [2] was 8 µg/mL.
In the case of `c1ccc(-c2nc3n(c2-c2ccc4c(c2)OCO4)CCS3)nc1` [compound 813], the “MRSA MIC” value [2] is reported as 32 µg/mL.
In the case of `N#Cc1ccc(-c2nc(-c3ccccn3)c[nH]2)cc1` [compound 1102], the “MSSA MIC” value [1] is reported as over 32 µg/mL and the “MRSA MIC” value [2] is reported as over 32 µg/mL.
In the case of `COc1ccc(-c2nc3ccccn3c2Nc2ccc(F)cc2)nc1` [compound 1022], the MIC ([1]; read-out: MSSA MIC) is reported as 8 µg/mL (≈ 23.9 µM) and the MIC ([2]; read-out: MRSA MIC) is reported as 8 µg/mL (≈ 23.9 µM).
In the case of `CN1CCN(c2ccc(-c3c(-c4ccccn4)nc4ccccn34)cc2)CC1` [compound 1012], the MIC ([1]; read-out: MSSA MIC) is reported as over 32 µg/mL and the MIC ([2]; read-out: MRSA MIC) is reported as over 32 µg/mL.
`Cc1ccc(-c2c(-c3ccccn3)nc3cc(C(N)=O)ccn23)cc1` [OSA_001015] showed an MIC ([1]; read-out: MSSA MIC (UCL)) of over 32 µg/mL and an MIC ([2]; UCL, read-out: MRSA MIC (UCL)) of over 32 µg/mL.
In the case of `CN1CCN(c2ccc(-c3c(-c4ccccn4)nc4ccccn34)cc2)CC1` [OSA_001012], the MIC ([1]; read-out: MSSA MIC (UCL)) is reported as over 32 µg/mL and the MIC ([2]; UCL, read-out: MRSA MIC (UCL)) is reported as over 32 µg/mL.
In the case of `c1ccc(-c2nc3n(c2-c2ccc4sccc4c2)CCC3)cc1` [OSA_000834], the MIC ([2]; UCL, read-out: MRSA MIC (UCL)) is reported as over 32 µg/mL.
Compound `N#Cc1ccc(-c2c(-c3ccccn3)nc3ncccn23)cc1` [OSA_001105] has an MIC [1, 3] of over 32 µg/mL and an MIC [2, 4] of over 32 µg/mL.
`CN(c1ccc(F)cc1)c1c(-c2ccccn2)nc2cccc(F)n12` [compound 1005] gave an MIC ([1]; read-out: MSSA MIC) of 32 µg/mL (≈ 95.1 µM) and an MIC ([2]; read-out: MRSA MIC) of 32 µg/mL (≈ 95.1 µM).
For `c1ccc(-c2nc3n(c2-c2ccc4c(c2)CCO4)CCC3)nc1` [compound 827], the “activity against MRSA, in words” value [2] was “ineffective” and the MIC ([2]; read-out: MRSA MIC) was 32 µg/mL (≈ 105 µM).
With `CC(C)CN(c1ccc(F)cc1)c1c(-c2nccs2)nc2ccccn12` [OSA_001010] the MIC ([1]; read-out: MSSA MIC (UCL)) was over 32 µg/mL and the MIC ([2]; UCL, read-out: MRSA MIC (UCL)) was over 32 µg/mL.
`COc1ccc(-c2c(-c3ccccn3)nc3n2CCC3)cc1` [compound 823] showed an MIC ([2]; read-out: MRSA MIC) of 16 µg/mL (≈ 54.9 µM).
`c1cc(-c2nc3n(c2-c2ccc4c(c2)OCO4)CCC3)ccn1` [compound 817] was tested, and the “MRSA MIC” value [2] was over 32 µg/mL.
In the case of `Cc1ccc(-c2c(-c3ccccn3)nc3cc(N4CCNCC4)ccn23)cc1` [compound 1014], the “MSSA MIC” value [1] is reported as over 32 µg/mL and the “MRSA MIC” value [2] is reported as over 32 µg/mL.
Work on `Fc1ccc(Nc2c(-c3nccs3)nc3ccccn23)cc1` [OSA_001008] yielded an MIC ([1]; read-out: MSSA MIC (UCL)) of over 32 µg/mL and an MIC ([2]; UCL, read-out: MRSA MIC (UCL)) of over 32 µg/mL.
`N#Cc1ccc(-c2nc(-c3ccccn3)c[nH]2)cc1` [OSA_001102] gave an MIC [1, 3] of over 32 µg/mL and an MIC [2, 4] of over 32 µg/mL.
`c1ccc(-c2nc3n(c2-c2csc4ccccc24)CCC3)nc1` [OSA_000832] was tested, and the MIC ([2]; UCL, read-out: MRSA MIC (UCL)) was 8 µg/mL (≈ 25.2 µM).
In the case of `CC(C)CN(c1ccc(F)cc1)c1c(-c2ccccn2)nc2ccncn12` [OSA_001039], the MIC [1, 3] is reported as over 32 µg/mL and the MIC [2, 4] is reported as over 32 µg/mL.
For `CC(C)CN(Cc1c(-c2ccccn2)nc2ccccn12)c1ccc(F)cc1` [compound 1040], the MIC ([1]; read-out: MSSA MIC) was over 32 µg/mL and the MIC ([2]; read-out: MRSA MIC) was 32 µg/mL (≈ 85.5 µM).
With `c1ccc(-c2nc3n(c2-c2ccc4cccnc4c2)CCC3)nc1` [compound 833] the “activity against MRSA, in words” value [2] was “ineffective” and the MIC ([2]; read-out: MRSA MIC) was over 32 µg/mL.
`CCN(CC)c1ccc(-c2c(-c3ccccn3)nc3ccccn23)cc1` [compound 1011] gave an MIC ([1]; read-out: MSSA MIC) of 4 µg/mL (≈ 11.7 µM) and an MIC ([2]; read-out: MRSA MIC) of 4 µg/mL (≈ 11.7 µM).
`CC(C)CN(c1ccc(F)cc1)c1c(-c2ccccn2)nc2ncccn12` [OSA_001038] was tested, and the MIC [1, 3] was 8 µg/mL (≈ 22.1 µM).
For `c1ccc(-c2nc3n(c2-c2ccc4c(c2)OCO4)CCCC3)nc1` [compound 818], the “MRSA MIC” value [2] was 16 µg/mL.
`c1ccc(-c2nc3ncccn3c2-c2ccc3c(c2)OCO3)nc1` [compound 815] was tested, and the “MRSA MIC” value [2] was over 32 µg/mL.
For `c1ccc(-c2nc3n(c2-c2ccc4scnc4c2)CCC3)nc1` [compound 835], the “activity against MRSA, in words” value [2] was “ineffective” and the MIC ([2]; read-out: MRSA MIC) was 32 µg/mL (≈ 101 µM).
With `c1ccc(-c2nc3n(c2-c2ccc4c(c2)OCCO4)CCC3)nc1` [compound 819] the MIC ([2]; read-out: MRSA MIC) was 16 µg/mL (≈ 50.1 µM).
